Some test systems named below: 786-0 renal; HCT-116 colon; KM12 colon; LOX IMVI melanoma; M14 melanoma; NCI-H23 lung; NCI-H460 lung; NCI-H522 lung; SK-MEL-2 melanoma; SF-539 CNS.
Holding throughout (experiment): growth of human tumour cells (NCI), 48 h

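Test compounds were applied to cells in 96-well plates for 48 hours at 5 doses. The concentration for 50% growth inhibition is given as GI50. The concentration for full growth arrest is given as TGI.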

Turning to `O=C1C=CC2(O)OCC3C=C4O[C@@H]5OC6(CCCCC6)O[C@@H]5C4[C@@H]2[C@@H]13` (some centres not stated), the TGI in the assay on 786-0 renal is 41.2 µM; in the assay on HCT-116 colon, 32.1 µM; in the assay with KM12 colon it was greater than 100 µM; in the assay on LOX IMVI melanoma, greater than 100 µM; in the assay with M14 melanoma it was 43.8 µM; with NCI-H23 lung, 67.3 µM. The TGI with NCI-H460 lung is greater than 100 µM; in the assay with NCI-H522 lung, 27.9 µM; with SK-MEL-2 melanoma, greater than 100 µM.
Regarding `O=c1c2ccccc2nc(-c2cccc(Cl)c2)n1NC1OC(CO)C(O)C(O)C1O` (configuration not stated), the TGI in the assay with 786-0 renal, with HCT-116 colon, in the assay with KM12 colon, with M14 melanoma, in the assay with NCI-H23 lung and in the assay on NCI-H460 lung was greater than 100 µM throughout. Further, the TGI with NCI-H522 lung, in the assay on SF-539 CNS and in the assay with SK-MEL-2 melanoma was greater than 100 µM each time.
For `CO[C@H]1C(=O)[C@]2(C)[C@@H](OC)C[C@H]3OC[C@@]3(OC(C)=O)[C@H]2[C@H](OC(=O)c2ccccc2)[C@]2(O)C[C@H](OC(=O)[C@H](O)[C@@H](NC(=O)OC(C)(C)C)c3ccccc3)C(C)=C1C2(C)C`, the GI50 with 786-0 renal, with HCT-116 colon, with KM12 colon, in the assay with LOX IMVI melanoma, with M14 melanoma and in the assay with NCI-H23 lung was less than 0.01 µM each time. The GI50 with NCI-H460 lung and in the assay with SK-MEL-2 melanoma was less than 0.01 µM each time. Also, the TGI was 87.3 µM with 786-0 renal; 21.2 µM in the assay on HCT-116 colon; 22.4 µM in the assay on KM12 colon; 49.7 µM in the assay with LOX IMVI melanoma; 17.8 µM in the assay on M14 melanoma; greater than 100 µM in the assay on NCI-H23 lung. Also, the TGI in the assay on NCI-H460 lung came out at 13 µM; in the assay on SK-MEL-2 melanoma, 0.973 µM.
Regarding `O=C(O)c1ccccc1NCn1nc(-c2ccccc2O)oc1=S`, the GI50 in the assay with 786-0 renal was 35.4 µM; in the assay on HCT-116 colon it was 26 µM; in the assay with KM12 colon it was greater than 100 µM; with LOX IMVI melanoma, 19.4 µM; with M14 melanoma, 46.3 µM; in the assay with NCI-H23 lung, 40.1 µM. Moreover, the GI50 was 39.5 µM in the assay with NCI-H460 lung, greater than 100 µM in the assay with NCI-H522 lung and greater than 100 µM with SK-MEL-2 melanoma. In addition, the TGI in the assay on 786-0 renal was greater than 100 µM; in the assay with HCT-116 colon, 54.1 µM; in the assay on KM12 colon, greater than 100 µM; in the assay with LOX IMVI melanoma, 38.9 µM; with M14 melanoma, greater than 100 µM; in the assay with NCI-H23 lung, greater than 100 µM. For the same molecule, the TGI in the assay on NCI-H460 lung, in the assay on NCI-H522 lung and in the assay on SK-MEL-2 melanoma was greater than 100 µM each time.
For `O=C1c2cccc3c(N4CCOCC4)ccc(c23)C(=O)N1CCN1CCN(CCCCCN2CCN(CCN3C(=O)c4cccc5c(N6CCOCC6)ccc(c45)C3=O)CC2)CC1`, the GI50 with 786-0 renal was 55.8 µM; in the assay with HCT-116 colon, 33.8 µM; in the assay on LOX IMVI melanoma, greater than 100 µM; in the assay on M14 melanoma, greater than 100 µM; with NCI-H23 lung it was 99.8 µM; in the assay on NCI-H460 lung, greater than 100 µM. In addition, the GI50 with SF-539 CNS was greater than 100 µM. In addition, the TGI in the assay with 786-0 renal, in the assay on HCT-116 colon, in the assay with LOX IMVI melanoma, in the assay with M14 melanoma, with NCI-H23 lung and in the assay on NCI-H460 lung was greater than 100 µM in each case. In the assay on SF-539 CNS, this molecule displayed a TGI greater than 100 µM.
Take `CN(C)C1C(=O)C(C(N)=O)=C(O)C2(O)C(=O)C3=C(O)c4c(O)cccc4C(C)(O)C3CC12.[Cl][Sb]([Cl])[Cl]` (configuration not stated): the GI50 was 4.14 µM in the assay with 786-0 renal; 3.33 µM with HCT-116 colon; 3.7 µM in the assay on KM12 colon; 2.63 µM in the assay on LOX IMVI melanoma; 3.82 µM in the assay with M14 melanoma; 3.3 µM in the assay on NCI-H23 lung. Besides, the GI50 is 3.27 µM with NCI-H460 lung, 1.86 µM with NCI-H522 lung and 2.99 µM with SK-MEL-2 melanoma. Besides, the TGI came to 17.6 µM in the assay with 786-0 renal; 12.2 µM in the assay on HCT-116 colon; 13.2 µM in the assay on KM12 colon; 12.3 µM in the assay with LOX IMVI melanoma; 16.6 µM in the assay with M14 melanoma; 12.2 µM with NCI-H23 lung. Also, the TGI in the assay on NCI-H460 lung worked out at 12.3 µM; in the assay with NCI-H522 lung, 4.1 µM; in the assay on SK-MEL-2 melanoma, 8.04 µM.
As to `OC1=CN=C(c2ccccc2)Oc2ccccc21`, the TGI in the assay with 786-0 renal, in the assay with HCT-116 colon, in the assay with KM12 colon, in the assay with LOX IMVI melanoma, in the assay with M14 melanoma and with NCI-H23 lung was greater than 100 µM throughout. In addition, the TGI in the assay with NCI-H460 lung was greater than 100 µM; with SF-539 CNS it was 38.7 µM; with SK-MEL-2 melanoma, greater than 100 µM.
Consider `CCOC(=O)c1cc(C(=O)c2ccc(OC)c(OC)c2)n2c1ccc1ccc3cccnc3c12`, for which the GI50 in the assay with 786-0 renal is 2.34 µM; with HCT-116 colon it was 0.619 µM; in the assay with KM12 colon, 1.3 µM; with LOX IMVI melanoma, 2.6 µM; with M14 melanoma, 0.648 µM; with NCI-H23 lung, 4 µM. Moreover, the GI50 in the assay on NCI-H460 lung was 1.58 µM; in the assay with NCI-H522 lung, 0.611 µM; in the assay with SK-MEL-2 melanoma, 2.67 µM. The TGI with 786-0 renal is greater than 100 µM; in the assay on HCT-116 colon it was greater than 100 µM; with KM12 colon, 80.7 µM; in the assay on LOX IMVI melanoma, greater than 100 µM; in the assay with M14 melanoma, greater than 100 µM; in the assay on NCI-H23 lung, greater than 100 µM. The TGI in the assay on NCI-H460 lung is greater than 100 µM; with NCI-H522 lung, greater than 100 µM; with SK-MEL-2 melanoma, 66.6 µM.
As to `COc1cc2c(c3c1c(=O)c1ccccc1n3C)C=C([N+](=O)[O-])C(C)(C)O2`, the TGI with 786-0 renal is greater than 100 µM; in the assay with HCT-116 colon, greater than 100 µM; in the assay on KM12 colon, greater than 100 µM; with LOX IMVI melanoma, greater than 100 µM; in the assay with NCI-H23 lung, greater than 100 µM; in the assay on NCI-H460 lung, 0.108 µM. Moreover, the TGI with NCI-H522 lung was greater than 34.4 µM; in the assay with SF-539 CNS, greater than 100 µM.
Take `O=C(Nc1ccccc1C(=O)NC(=O)c1ccccc1NC(=O)c1ccccc1)c1ccccc1`: the TGI in the assay with 786-0 renal was found to be 29.3 µM; in the assay on HCT-116 colon, 13.5 µM; in the assay with KM12 colon, 3.17 µM; in the assay with LOX IMVI melanoma it was 13.9 µM; with NCI-H23 lung it was 17.1 µM; with NCI-H460 lung, 28.1 µM. Further, the figures for the TGI in the assay on SF-539 CNS and with SK-MEL-2 melanoma were 18.9 µM and 3.93 µM, respectively.

The values are drawn from PubChem BioAssay (NCI).
